Experiment [1] concerns the target T1, gelatinase A (Homo sapiens, UniProt P08253).
T1 construct: endogenous in cells; host or cells: human normal skin dermal fibroblasts (HNDF); progelatinase A purified from them
T1 sequence (P08253 110-660): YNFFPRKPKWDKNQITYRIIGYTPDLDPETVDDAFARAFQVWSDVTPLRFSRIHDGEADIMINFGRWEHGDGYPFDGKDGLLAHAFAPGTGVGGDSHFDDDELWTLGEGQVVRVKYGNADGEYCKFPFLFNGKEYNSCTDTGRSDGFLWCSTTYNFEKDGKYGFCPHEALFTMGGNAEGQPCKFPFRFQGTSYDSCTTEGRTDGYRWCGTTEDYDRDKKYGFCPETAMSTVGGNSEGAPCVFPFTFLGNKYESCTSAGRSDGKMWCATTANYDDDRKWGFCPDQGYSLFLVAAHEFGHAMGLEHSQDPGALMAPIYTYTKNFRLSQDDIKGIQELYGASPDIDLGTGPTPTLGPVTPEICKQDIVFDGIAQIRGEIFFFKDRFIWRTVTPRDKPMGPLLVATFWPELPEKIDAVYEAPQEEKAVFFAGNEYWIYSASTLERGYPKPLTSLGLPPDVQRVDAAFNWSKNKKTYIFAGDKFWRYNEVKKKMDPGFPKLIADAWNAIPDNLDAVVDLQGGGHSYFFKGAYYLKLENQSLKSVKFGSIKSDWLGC
Kind of experiment: Inhibitory activity against gelatinase A (FITC-labeled gelatin substrate). The conditions noted are these: incubated 2 hours at 37° C., APMA-activated progelatinase A from human normal skin dermal fibroblasts. The format is biochemical. As for the experimental part:
(§1) The potency of inhibitory activity against each matrix metalloproteinase is confirmed as below. The IC50 value for inhibition of gelatinase A activity is determined as follows.
(§2) (1) Inhibitory activity against gelatinase A
(§3) Progelatinase A (7 μl; in assay buffer (90 μl )) was purified from human normal skin dermal fibroblasts (HNDF). It was activated by the addition of 10 mM of p-aminophenylmercuric acetate (APMA) (10 μl) for 1 hour at 37° C.
The solution of activated gelatinase A (7 μl tube, 98μl) was mixed with various concentrations of the test compound or dimethylsulfoxide (2 μl) and gelatin (100 μl) labeled with 0.05% fluorescein isothiocyanate (FITC) and incubated for 2 hours at 37° C. The reaction was terminated by the addition of 0.1 M Tris-HCI (pH9.5) containing 94.7% ethanol (750 μl). The mixture was stirred and then allowed to stand for 30 minutes at 0° C. The mixture was centrifuged for 30 minutes at 900×g. The IC50 was determined by measuring the fluorescent intensity in the supernatant (Ex=495 nm, and Em=520 nm). The results are shown in Table 24 (Example number 2 and 2(3)).

The target in experiment [2] is T1, gelatinase A. Kind of experiment: Inhibitory activity against gelatinase A (synthetic substrate MOCAc-Pro-Leu-Gly-Leu-A2 pr(Dnp)-Ala-Arg-NH2). It is filed as biochemical. The conditions noted are these: final 13.5 μM, incubated 20 minutes at 37° C., activated gelatinase A. As for the experimental part:
as §1, §2, §3
Alternatively the inhibitory activity of the test compound was measured by using the synthetic substrate (MOCAc-Pro-Leu-Gly-Leu-A2 pr(Dnp)-Ala-Arg-NH2). The substrate solution (890 μl; the final concentration was 13.5 μM) was mixed with various concentrations of the test compound or dimethylsulfoxide ([…]) for 5 minutes at 37° C. The activated gelatinase A (7 μl/tube, 100 μl) was added to the reaction mixture and further incubated for 20 minutes at 37° C. 0.1 M sodium acetate buffer (2 ml; pH4.0) was added into the mixture. The IC50 was determined by measuring the fluorescent intensity (Ex=328 nm, and Em=393 nm) in this solution. The results are shown in Table 24 (Example number 2(4) and 3(2)).

`CCCCCc1ccc(C(=O)Nc2ccc(S(=O)(=O)N[C@H](Cc3ccccc3)C(=O)NO)cc2)cc1` [Example 2(3), N-Hydroxy-N-[N'-[[4-(4-pentylbenzoylamino)phenyl]sulfonyl]-D-phenylalanyl]amide]: at gelatinase A [1], the concentration for half-maximal inhibition (IC50) – broadly, the concentration at which inhibition is half-maximal – turned out to be 1 nM. `Cc1ccc(C(=O)Nc2ccc(S(=O)(=O)N[C@H](Cc3c[nH]c4ccccc34)C(=O)NO)cc2)cc1` [Example 2(4), N-Hydroxy-N-[N'-[[4-(p-toluoylamino)phenyl]sulfonyl]-D-tryptophyl]amide] returned an IC50 on gelatinase A [2] of 0.61 nM. Take `Cc1ccc(C(=O)Nc2ccc(S(=O)(=O)NCC(=O)NO)cc2)cc1` [Example 2, N N-Hydroxy-N-[N'-[[4-(p-toluoylamino)phenyl]sulfonyl]glycyl]amide]: on gelatinase A [1], the IC50 stood at 1.7 nM.

On gelatinase A [2], `C[C@@H](NS(=O)(=O)c1ccc(NC(=O)c2cccs2)cc1)C(=O)NO` [Example 3(2)] registered an IC50 of 0.23 nM.

Source of the values: US6022893A, “Hydroxamic acid derivatives” (ONO Pharmaceutical Co., Ltd., priority 1995, dated 2000).
